From patent US8269017B2, “Compounds for the treatment of proliferative disorders” (Synta Pharmaceuticals Corporation, priority 2005, dated 2012)
Where a name gives a salt, the structure may show the parent alone. Read-outs that look alike come from different tables or passages of the source.

Columns and labels:
[1] = test system: MDA-435; test: Cytotoxicity in MDA-435 tumor cells (Cell Counting Kit 8); assay type: cell-based; settings: Homo sapiens, MDA435, MDA-435 cells, 70 h
Description: Tumor cell line, MDA-435, was seeded in 96-well plates at 1×10^4 cells/well in DMEM medium and treated with compounds at different concentrations. Taxol was used as a positive control. The cells were incubated at 37° C. for 70 h. Viability of the cells was measured with Cell Counting Kit 8 (Dojindo, Cat #CK04). IC50 of the compounds was determined by Five-Parameter Logistic equation.

[2] = test system: SB cells; test: Induction of apoptosis in SB cells (Annexin V/PI, FACS); assay type: cell-based; settings: 24 h; for % Apoptotic Cells Gated: 1 μM; for cytotoxicity at 1 µM: read-out: % Dead Cells Gated; for viability at 1 µM: read-out: % Live Cells Gated
Description: SB cells (2×10^5 cells/mL) were cultured in 12-well plates (2 mL/well) and were left untreated (negative control), treated with Taxol (positive control), or treated with a compound of the invention for 24 h at 37° C. After treatment, the cells were washed one time with 1×PBS and stained with FITC labeled anti-Annexin V and PI (10 μg/ml) for 15 min at room temperature. The cells were analyzed by FACSCalibur (Becton Dickinson).

[3] = test system: MDA-435 cells; test: Cell cycle analysis in MDA-435 cells; assay type: cell-based, human; settings: 20 h, Taxol 30 nM, Comp. 1 100 nM, Comp. 2 500 nM, Comp. 3 10 nM, Comp. 6 800 mM (so in the source), Comp. 46 50 nM
Description: MDA-435 cells were cultured in 6-well plates at 1×10^6 cells/well and were untreated (negative control), treated with Taxol (positive control), or treated with a compound of the invention at 37° C. for 20 h. The cells were detached with 1× trypsin and washed one time with PBS. Cycle TEST PLUS kit (BD PharMingen, Cat #340242) was used to stain the cells. Cell cycle was analyzed with FACScomp program (BS PharMingen).

[4] = test system: HL-60 (T-cell leukemia); test: In vitro cytotoxicity, MTS assay, HL-60; assay type: cell-based, human
Description: (§1) The in vitro cytotoxicity of the compounds of the invention was determined in the following human cell lines: HL-60 (T-cell leukemia), MDA-435 and MCF-7 (human breast carcinoma), NCI-H460 and H29 (colon carcinoma), DU145 (prostate carcinoma), and MES-SA and MES-SA/DX5 (uterine sarcoma). MES-SA is a model of uterine sarcoma, and the cell are sensitive to a number of chemotherapeutic agents including doxorubicin, dactinomycin, mitomycin C, taxol and bleomycin, but resistant to vinblastine and cisplatin. MES-SA/Dx5 was established in the presence of increasing concentrations of doxorubicin. […] All cells were purchased from ATCC.
(§2) The cell lines were maintained in RPMI1640 (GIBCO) supplemented with 10% FCS, 100 units/mL penicillin, 100 ug/ml streptomycin, and 2 mM L-glutamine. Cells were split every third day and diluted to a concentration of 2×10^5 cells/mL one day before the experiment was performed. All experiments were performed on exponentially growing cell cultures. Cell densities were 2.5×10^4 cells/mL in all experiments.
(§3) Compounds of the invention were prepared by dissolving the compound at a concentration of 10 mM in 100% DMSO. Final concentrations 10, 1, 0.1, 0.01 and 0.001 μM were obtained by diluting the stock solution directly into the tissue culture medium.

[5] = test system: MES-SA (uterine sarcoma); test: In vitro cytotoxicity, MTS assay, MES-SA; assay type: cell-based, human; settings: MES-SA (Uterine Carcinoma)
Description: as §1, §2, §3

[6] = test system: MES-SA/DX5 (uterine sarcoma, MDR-1); test: cells; assay type: cell-based; settings: MES/DX5 (MDR-1), MTS assay
Description: as §1, §2, §3

[7] = test system: microtubules of CV-1 cells; test: Microtubule disruption in CV-1 cells resistant to colchicine and vincristine; assay type: cell-based, Africa green monkey; settings: 500 nM
Description: The effects of compounds of the invention on microtubules were studied in CV-1 cells. The microtubules of CV-1 cells are known to be resistant to the depolymerizing effects of colchicine and vincristine. […] Cells were then fixed and stained to examine microtubule structure.

[8] = Homo sapiens, HL-60, HL60 (Leukemia), 72 hours, read-out: IC50
[9] = Homo sapiens, 72 hours, read-out: IC50
[10] = Homo sapiens, HL-60, 72 h, HL60 (Leukemia)

Q: What does the source list for CCc1cc(-c2oncc2-c2ccc3ccccc3c2)c(O)cc1OC [Compound 2, 4-(Naphthalen-2-yl)-5-(2-hydroxy-4-methoxy-5-ethyl-phenyl)-isoxazole]?
A: IC50 [1]: 79 nM; % Apoptotic Cells Gated [2]: 22.73%; cytotoxicity at 1 µM [2]: 22.7%; viability at 1 µM [2]: 45.7%; Apoptotic Population (%) [3]: 11.17%; G0/G1 Phase (%) [3]: 21.25%; G2/M Phase (%) [3]: 30.53%; S Phase (%) [3]: 37.67%

Q: What does the source list for CCc1cc(-c2oncc2-c2ccc(OC)cc2)c(O)cc1OC [Compound 44, 4-(4-Methoxy-phenyl)-5-(2-hydroxy-4-methoxy-5-ethyl-phenyl)-isoxazole]?
A: IC50 [1]: 200 nM; % Apoptotic Cells Gated [2]: 16.05%; cytotoxicity at 1 µM [2]: 12.3%; viability at 1 µM [2]: 64.8%

Q: What does the source list for COc1cc(-c2oncc2-c2ccc(C(C)C)cc2)cc(OC)c1OC [Compound 45, 4-(4-Isopropyl-phenyl)-5-(3,4,5-trimethoxy-phenyl)-isoxazole]?
A: IC50 [1]: 219 nM; % Apoptotic Cells Gated [2]: 17.74%; cytotoxicity at 1 µM [2]: 15.4%; viability at 1 µM [2]: 62%

Q: What does the source list for CCc1ccc(-c2cnoc2-c2cc(OC)c(OC)c(OC)c2)cc1 [Compound 47, 4-(4-Ethyl-phenyl)-5-(3,4,5-trimethoxy-phenyl)-isoxazole]?
A: IC50 [1]: 47 nM; % Apoptotic Cells Gated [2]: 13.83%; cytotoxicity at 1 µM [2]: 14.8%; viability at 1 µM [2]: 61.9%

Q: With COc1ccc(-c2oncc2-c2ccc3c(c2)OCCO3)cc1OC [Compound 161, 4-(2,3-Dihydro-benzo[1,4]dioxin-6-yl)-5-(3,4-dimethoxy-phenyl)isoxazole] as the compound, how does the IC50 [1] read?
A: 591 nM

Q: What about the “% Apoptotic Cells Gated” value [2] of the same compound?
A: 14.61%

Q: What about the cytotoxicity at 1 µM [2] of the same compound?
A: 10.5%

Q: And the viability at 1 µM [2]?
A: 66.8%

Q: With CCc1cc(-c2oncc2-c2ccc(C)c(C)c2)c(O)cc1OC [Compound 162, 4-(3,4-Dimethy-phenyl)-5-(2-hydroxy-4-methoxy-5-ethyl-phenyl)-isoxazole] as the compound, how does the IC50 [1] read?
A: 842 nM

Q: And the “% Apoptotic Cells Gated” value [2]?
A: 17.74%

Q: And the cytotoxicity at 1 µM [2]?
A: 11.5%

Q: And the viability at 1 µM [2]?
A: 64.6%

Q: What does the source list for COc1cc(-c2cnoc2-c2ccc(Br)cc2)cc(OC)c1OC [Compound 168, 4-(3,4,5-Trimethoxy-phenyl)-5-(4-bromo-phenyl)-isoxazole]?
A: IC50 [1]: > 1000 nM; % Apoptotic Cells Gated [2]: 15.49%; cytotoxicity at 1 µM [2]: 14.4%; viability at 1 µM [2]: 60.4%

Q: What does the source list for COc1ccc(-c2cnoc2-c2cc(OC)c(OC)c(OC)c2)cc1NC(=O)C(N)CO (stereo not drawn) [Compound 170, 2-amino-3-hydroxy-N-(2-methoxy-5-[5-(3,4,5-trimethoxy-phenyl)-isoxazol-4-yl)-phenyl)propanamide hydrochloride]?
A: IC50 [4, 8]: 2 nM; IC50 [5, 9]: 9 nM; IC50 ([6]; Homo sapiens, MDR1, 72 h): 3 nM

Q: What does the source list for COc1ccc(-c2cnoc2-c2cc(OC)c(OC)c(OC)c2)cc1NC(=O)C(C)N (stereo not drawn) [Compound 171, 2-amino-N-(2-methoxy-5-[5-(3,4,5-trimethoxy-phenyl)-isoxazol-4-yl)-phenyl)propanamide]?
A: IC50 ([4]; HL60 (Leukemia), 72 hours): 5 nM; IC50 ([5]; 72 hours): 2 nM; IC50 ([6]; 72 hours): 4 nM

Q: Which results are given for COc1ccc(-c2cnoc2-c2cc(OC)c(OC)c(OC)c2)cc1NC(=O)C(N)CCSC (stereo not drawn) [Compound 172, 2-amino-N-(2-methoxy-5-(5-(3,4,5-trimethoxyphenyl)isoxazol-4-yl)phenyl)-4-(methylthio)butanamide Hydrochloride]?
A: IC50 [4, 8]: 5 nM; IC50 [5, 9]: 0.1 nM; IC50 ([6]; Homo sapiens, MDR1, 72 h): 0.1 nM

Q: Which IC50 [4, 8] does the source give for CCC(N)C(=O)Nc1cc(-c2cnoc2-c2cc(OC)c(OC)c(OC)c2)ccc1OC (stereo not drawn) [Compound 173, 2-amino-N-(2-methoxy-5-(5-(3,4,5-trimethoxyphenyl)isoxazol-4-yl)phenyl)butanamide Hydrochloride] here?
A: 2 nM

Q: What about the IC50 [5, 9] of the same compound?
A: 0.1 nM

Q: And the IC50 ([6]; Homo sapiens, MDR1, 72 h)?
A: 0.1 nM

Q: Which IC50 [4, 8] does the source give for COc1ccc(-c2cnoc2-c2cc(OC)c(OC)c(OC)c2)cc1NC(=O)C(N)CC(C)C (stereo not drawn) [Compound 175, 2-amino-N-(2-methoxy-5-(5-(3,4,5-trimethoxyphenyl)isoxazol-4-yl)phenyl)-4-methylpentanamide Hydrochloride] here?
A: 5 nM

Q: And the IC50 [5, 9]?
A: 0.1 nM

Q: What about the IC50 ([6]; Homo sapiens, MDR1, 72 h) of the same compound?
A: 0.1 nM

Q: For COc1ccc(CC(N)C(=O)Nc2cc(-c3cnoc3-c3cc(OC)c(OC)c(OC)c3)ccc2OC)cc1 (stereo not drawn) [Compound 176, 2-amino-N-(2-methoxy-5-(5-(3,4,5-trimethoxyphenyl)isoxazol-4-yl)phenyl)-3-(4-methoxyphenyl)propanamide], which IC50 [4, 10] is on record?
A: 64 nM

Q: What about the IC50 ([5]; Homo sapiens, MES-SA, 72 h) of the same compound?
A: 0.1 nM

Q: What about the IC50 ([6]; Homo sapiens, MDR1, 72 h) of the same compound?
A: 0.1 nM

Q: How did the IC50 ([4]; HL60 (Leukemia), 72 hours) turn out when COc1ccc(-c2cnoc2-c2cc(OC)c(OC)c(OC)c2)cc1OP(=O)(O)O [Compound 177, 2-methoxy-5-[5-(3,4,5-trimethoxy-phenyl)-isoxazol-4-yl)-phenyl dihydrogen phosphate] was run?
A: 52 nM

Q: What about the IC50 ([5]; Homo sapiens, MES-SA, 72 h) of the same compound?
A: 8 nM

Q: What about the IC50 ([6]; Homo sapiens, MDR1, 72 h) of the same compound?
A: 4 nM

Q: Which IC50 ([4]; HL60 (Leukemia), 72 hours, Hydrochloride) does the source give for COc1ccc(-c2cnoc2-c2cc(OC)c(OC)c(OC)c2)cc1NC(=O)C(C)N (stereo not drawn) [Compound 204, 2-amino-N-(2-methoxy-5-(5-(3,4,5-trimethoxyphenyl)isoxazol-4-yl)phenyl)propanamide Hydrochloride] here?
A: 500 nM

Q: What about the IC50 ([5]; 72 hours, Hydrochloride) of the same compound?
A: 106 nM

Q: What about the IC50 ([6]; 72 hours, Hydrochloride) of the same compound?
A: 120 nM

Q: For COC(=O)CNCC(=O)Nc1cc(-c2cnoc2-c2cc(OC)c(OC)c(OC)c2)ccc1OC [Compound 241, methyl 2-(2-(2-methoxy-5-(5-(3,4,5-trimethoxyphenyl)isoxazol-4-yl)phenylamino)-2-oxoethylamino)acetate], which IC50 [4, 8] is on record?
A: 600 nM

Q: What about the IC50 [5, 9] of the same compound?
A: 136 nM

Q: And the IC50 ([6]; Homo sapiens, MDR1, 72 h)?
A: 63 nM

Q: With COc1ccc(-c2cnoc2-c2cc(OC)c(OC)c(OC)c2)cc1NC(=O)CCN [Compound 243, 3-amino-N-(2-methoxy-5-(5-(3,4,5-trimethoxyphenyl)isoxazol-4-yl)phenyl)propanamide Hydrochloride] as the compound, how does the IC50 [4, 10] read?
A: 63 nM

Q: And the IC50 ([5]; Homo sapiens, MES-SA, 72 h)?
A: 50 nM

Q: And the IC50 ([6]; Homo sapiens, MDR1, 72 h)?
A: 38 nM

Q: Which microtubule structure ([7]; 24 hr) does the source give for COc1cc2c(c(OC)c1OC)-c1ccc(OC)c(=O)cc1[C@@H](NC(C)=O)CC2 [colchicine] here?
A: disorganized but clear microtubule structures were found

Q: And the microtubule structure ([7]; 48 hr)?
A: microtubule structures were still found

Q: What does the source list for CC[C@]1(O)C[C@H]2CN(CCc3c([nH]c4ccccc34)[C@@](C(=O)OC)(c3cc4c(cc3OC)N(C=O)[C@H]3[C@@](O)(C(=O)OC)[C@H](OC(C)=O)[C@]5(CC)C=CCN6CC[C@]43[C@@H]65)C2)C1 [vincristine, Vincristine]?
A: microtubule structure ([7]; 24 hr): disorganized but clear microtubule structures were found; microtubule structure ([7]; 48 hr): microtubule structures were still found
